What was measured:
[1] = tested on: primary rat dopaminergic neurons; assay: ROS production in primary dopaminergic TH-positive neurons injured with 6-OHDA; type: cell-based; conditions: injury with 6-OHDA (20 μM, 4 h); FIG. 5
Method: (§1) Rat dopaminergic neurons were cultured as described by Visanji et al., 2008. Briefly, pregnant female rat of 15 days of gestation are sacrificed using a deep anesthesia with CO2 chamber and a cervical dislocation. The midbrains obtained from 15-day-old rat embryos are dissected under a microscope. The embryonic midbrains are removed and placed in ice-cold medium of Leibovitz (L15) containing 2% of Penicillin-Streptomycin (PS) and 1% of bovine serum albumin (BSA). The ventral portion of the mesencephalic flexure, a region of the developing brain rich in dopaminergic neurons, is used for the cell preparations.
The midbrains are dissociated by trypsinisation for 20 min at 37° C. (solution at a final concentration of 0.05% trypsin and 0.02% EDTA). The reaction is stopped by the addition of Dulbecco's modified Eagle's medium (DMEM) containing DNAase I grade II (0.5 mg/mL) and 10% of foetal calf serum (FCS). Cells are then mechanically dissociated by 3 passages through a 10 mL pipette. Cells are then centrifuged at 180×g for 10 min at +4° C. on a layer of BSA (3.5%) in L15 medium. […] Viable cells are counted in a Neubauer cytometer using the trypan blue exclusion test. […] Six wells per condition are assessed. […]

[2] = tested on: primary rat TH+ dopaminergic neurons; assay: Survival, neurite network, CytC release and aSyn aggregation of TH+ dopaminergic neurons injured with MPP+; type: cell-based
Method: as §1
The midbrains are dissociated by trypsinisation for 20 min at 37° C. (solution at a final concentration of 0.05% trypsin and 0.02% EDTA). […] Viable cells are counted in a Neubauer cytometer using the trypan blue exclusion test. […] Six wells per condition are assessed.
For each condition, 20 pictures at 10× magnification (plate 1) or 30 pictures at 20× magnification (representing the whole well area) were automatically taken using ImageXpress®. […] The following read-outs were measured: Analysis of total number of TH neurons (TH positive neuron number), Analysis of the ROS into TH positive neurons, Analysis of caspase 3 positive TH neurons, and Analysis of total neurite network of TH positive neurons (in μm).
All values are expressed as mean+/−SEM (standard error of the mean). […]

## Cc1nn(C)c2sc(C(=O)Nc3ccc(F)c(S(=O)(=O)Nc4ccc(Cl)cc4)c3)cc12 [Compound 705]
[1]
  reactive oxygen species (ROS) production: reduction in ROS
[2]; injury with MPP+ (4 μM, 24 h), FIG. 8
  neurite network of TH+ dopaminergic neurons: protection of the neurite network
[2]; injury with MPP+ (4 μM, 48 h), FIG. 11
  neurite network of TH+ dopaminergic neurons: protection of neurite network

From patent US20230174523A1, “BENZENESULFONAMIDE DERIVATIVES AS TRAP1 MODULATORS AND USES THEREOF” (Amathus Therapeutics, Inc., priority 2020, published 2023)
